# Measured values as given in patent publication US20050154046A1, “Methods of treating an inflammatory-related disease” (priority 2004, published 2005).
# Entries after “also recorded” stand apart in the source; their conditions may differ.
# Legend:
# [1] = tested on: scale epithelial cells of mouse-tails; experiment: Mouse-tail model: granular layer formation in scale epithelial cells; type: in vivo, Kunming mice; details: 13 days
# Excerpt: Materials: Meisoindigo was synthesized, purified and its structure characterized by Natrogen Therapeutics, Inc. The purity of the compound was 98.5% as described in the Examples above. A suspension of Meisoindigo was freshly prepared in 0.5% sodium methylcellulose and given orally for the animal tests described below. Other chemicals used in the following experiments were purchased from Sigma.
# Pathogen-free female Kunming mice at 12 weeks of age with body weights from 22 to 25 grams were housed 5 per cage, and given, ad libitum, fresh tap water and commercial rodent pellets. Animal rooms were controlled at 24±2° C. with a relative humidity of 60±5% and a 12 hour light/dark cycle (07:00-19:00 hr).
# Effect of Meisoindigo on Epidermal Cell Differentiation in Mouse Tails: Sixty female Kunming mice were randomly divided into 5 groups, 20 in one control group, and 10 in 4 drug-tested groups. Meisoindigo was freshly prepared as a suspension in 0.5% of sodium methylcellulose. The drug was given orally at doses of 50, 100, and 200 mg/kg, respectively, once a day for 13 days. Methotrexate (MTX) was used as a positive control at a dose of 1 mg/kg, i.p. once every 2 days, for the same period of time. The same volume and vehicle for Meisoindigo suspension were used as a negative control. […] Slides were prepared for histological examination as originally described by Bosman et. al., (106). The slides were prepared by cutting the tails into longitudinal sections, and Hematoxylin and Eosin (H&E) stained. The slides were then examined with a light microscope to evaluate the degree of orthokeratosis (OK) and epidermal hyperplasia. The former was done by measuring the horizontal length of the fully developed granular layer stratum granulosum within an individual scale in relation to its total length. Drug activity was defined by the increase of the positive scale cells containing granular layer stratum granulosum between two folliculus pili.
# [2] = target: T1, CDK2 (Homo sapiens, UniProt P24941); experiment: Cyclin dependent kinase activity in THP-1 cells (immunoprecipitation, histone H1 phosphorylation); type: cell-based; details: 24 h
# T1 construct: endogenous in cells; host or cells: THP-1
# Procedure: 2) Effects of Meisoindigo and/or NATURA on activity of cyclin dependent kinases (CDK) in THP-1 cells (99): THP-1 cells grown exponentially were exposed to […] of Meisoindigo or NATURA for 24 hr, respectively.
# The cells were harvested, washed, and total proteins extracted as described previously (100). One hundred μg of the proteins were immuno-precipitated using antibodies against either cdk2, cdk4/6 or cyclin D1 overnight at 4° C. in the presence of a cocktail of protease inhibitors. The immuno-precipitates were washed 4 times with protein extraction buffer and once with kinase assay buffer, and reacted with […] histone H1 in the presence of [γ-^32P]-ATP (10 μCi/10 μM). The phosphorylated histone H1 (represent cdk activity) was measured by scintillation counting or by SDS-polyacrylaimde gel electrophoresis (101, 102).
# [3] = tested on: IL-10; experiment: IL-10 secretion (ELISA) in THP-1 cells; type: cell-based, human
# Excerpt: Viability of cells was examined by trypan blue exception assay.
# [4] = tested on: IL-2; experiment: IL-2 secretion in LPS-stimulated THP-1 cells; type: cell-based, human; details: cells could not be stimulated to secrete IL-2
# [5] = tested on: TNF-α; experiment: TNF-α secretion (ELISA) in LPS-stimulated THP-1 cells; type: cell-based, human
# Procedure: Methods: The cells were stimulated with or without […] of lipopolysaccharide (LPS, Sigma), and exposed for 24 hours to different concentrations of Meisoindigo (from 31.25 nM to 16,000 nM). Viability of cells was examined under microscope after trypan blue staining. Protein levels of IL-1β secreted into the culture media by the cells were then measured by ELISA and calculated from its standard curve using an assay Kit from R&D Systems according to instructions provided by the supplier. The method was established and validated by a good standard curve obtained. An example of the standard curve is shown in FIG. 2, panel A. The representative derivative Meisoindigo was used. The cell line and the procedure of ELISA to measure secretion of TNF-α were the same as described in Example 1, except the standard TNF-α protein was used to establish a standard curve for the calculation of the protein secreted in the medium by the cells (LPS-stimulated or non-stimulated cells in the presence or absence of Meisoindigo).
# [6] = tested on: IL-6 mRNA; experiment: IL-6 transcription (real time PCR) in LPS-stimulated THP-1 cells; type: cell-based, human; details: 1 μM, 1 μg/ml LPS, 24 h
# Procedure: Real Time PCR: The effect of Meisoindigo on the transcription of IL-6 (RNA levels) was determined by a technique of real time polymerase chain reaction (real time PCR). Total RNA was extracted using a Qiagen […] the HPRT gene was used as internal control. Human monocytic THP-1 cells at exponential growth phase were exposed to 1 μg/ml of LPS, 1 μM of Meisoindigo, or 1 μg/ml of LPS plus 1 μM of Meisoindigo for 24 hours. The cells were then harvested, washed and total RNA extracted for real time PCR assay. Total RNA (300 ng) was treated with DNase I (Promega, Madison, Wis.), and SuperScript II (Invitrogen, Carlsbad, Calif.) and oligo(dT) were used for reverse transcription according to the manufacturers' instructions. Real-time PCR reactions were performed in a 25-μL volume containing diluted cDNA, Sybr Green PCR Master Mix (Applied Biosystems), and 2.5 μM each IL-6 gene-specific primer: […] and […] An ABI SDS7700 analyzer (Applied Biosystems) was used at 50° C. for 2 minutes and 95° C. for 10 minutes, followed by 40 cycles at 95° C. for 15 seconds and 60° C. for 1 minute. Test cDNA results were normalized to HPRT internal control measured on the same plate. After cycling, the specificity of amplification was validated by the generation of a melting curve through slow denaturation of the PCR products and then by gel electrophoresis.
# [7] = tested on: TNF-α mRNA; experiment: TNF-α transcription (real time PCR) in LPS-stimulated THP-1 cells; type: cell-based, human; details: 4 μM, 24 h
# Procedure: The effect of Meisoindigo on the transcription of TNF-α (RNA levels) was determined by a technique of real time PCR using the same procedures described in Example 2, except the specific primers for TNF-α were used as follows: 5′-[…], and 5′[…]. Total RNA was extracted using a Qiagen Rneasy minit kit, and the HPRT gene was used as internal control.
# Human monocytic THP-1 cells grown exponentially were exposed to […] of LPS, 4 μM of Meisoindigo, or 1 μg/ml of LPS plus 4 μM of Meisoindigo for 24 hours. The cells were then harvested, washed and total RNA extracted for real time PCR assay as described in Example 2.
smiles,measurement,setting,value
CN1C(=O)/C(=C2/C(=O)Nc3ccccc32)c2ccccc21 [Meisoindigo],Granulous Scales (X ± SD),[1]; 50.0 mg/kg orally once a day,22.37 ± 6.20
same,Granulous Scales (X ± SD),[1]; 100.0 mg/kg orally once a day,25.98 ± 4.12
same,Granulous Scales (X ± SD),[1]; 200.0 mg/kg orally once a day,31.30 ± 7.92
same,partial inhibition of CDK activity,"[2]; 1.5 μM, FIG. 6B",23%
same,inhibition of CDK2 activity,[2]; 31.25 and 62.50 nM,failed to inhibit; also recorded: no inhibitory effect
same,increase in the IL-10 secretion,"[3]; 0.0625 μM, THP-1 cells",Approximately 60%
same,increase of IL-10 secretion at maximal stimulation,"[3]; 62.5 nM, LPS-treated THP-1 cells, 24 h",approximately 2 fold
same,effect on IL-10 production,"[3]; 31.25 and 62.5 nM, 24 h",promoted production
same,"IL-10 (Stimulation), Percentage of Maximal Response Without Cytotoxicity","[3]; LPS-stimulated THP-1 cells, LPS alone −18.27",201.97 ± 11.2%
same,elevation of LPS-suppressed IL-10,"[3]; similar concentrations (as low as 31.25 nM), FIG. 6A",~2 fold
same,effect on IL-2 secretion,[4],no effects were observed
same,reduction of TNF-α secretion,"[5]; 2.0 μM, 24 h",Approximately 50%
same,inhibition of TNF-α secretion,[5]; 16 μM,complete inhibition
same,effect on TNF-α secretion over the concentration series,"[5]; 0.031 to 16 μM, 24 h",effectively inhibited; also recorded: concentration-dependent inhibition
same,"TNF-α (Inhibition), Percentage of Maximal Response Without Cytotoxicity","[5]; LPS-stimulated THP-1 cells, LPS alone 100.00",49.20 ± 3.37%
same,further reduction of TNF-α secretion on increasing the concentration,[5]; up to 8 μM,did not cause further reduction
same,LPS-induced IL-6 transcription,[6],completely suppressed; also recorded: significantly inhibits
same,effect on TNF-α mRNA levels / transcription,[7],No effect
